The record followed here is patent US5478807A, “Use of relaxin in the treatment of bradycardia” (Genentech, Inc., priority 1992, dated 1995).

The test concerns primary human uterine cell line. The experiment in a line: cAMP bioassay in primary human uterine cell line. It is filed as cell-based. Here is the method:
The phosphorylated relaxin was assayed for its ability to increase cAMP levels in a primary human uterine cell line. The procedure of Kramer et al. [Kramer et al., In Vitro Cell, Dev, Biol. 26, 647-656 (1990)] was modified and carried out as follows: human uterine cells at passage 15-22 were grown to confluency in Ham's F12/DMEM (1/1, v/v) medium supplemented with 10% heat-inactivated newborn calf serum, 100 unites/ml penicillin, 100 μg/ml streptomycin, 2 mM glutamine and 24 mMHEPES, pH 7.4. Cells were plated into 6-well culture plates at 10^5 cells/well and incubated overnight at 37° C. and 5% CO2 in air. The cells (at 60-80% confluency) were then washed twice with F12/DMEM-24 mMHEPES, pH 7.4 (buffer B) at room temp. […] Aliquots of the extracts were then neutralized with 0.1 N NaOH and cAMP levels were measured in a radioimmunoassay. The assay was based on the competition between cAMP and a fixed quantity of ^125 I-labeled cAMP (Du Pont) for binding to a goat anti-cAMP antibody (Cambridge). […] The radioactivity in the pellet was measured in a gamma counter, and the amount of cAMP in the samples was determined by comparison with a standard cAMP curve. A relaxin standard curve was constructed in which the cAMP concentrations (pmol/ml) determined in the radioimmunoassay were plotted as a function of stimulating relaxin concentrations (ng/ml). […]

For the substance relaxin, the biological activity result is listed as “biologically active”.
